Legend:
Test in all cases: relative viability (nuclei count vs DMSO), 5 days (fraction); higher = more cells survive
ABC-1 = tested on: ABC-1
In short: (§1)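 Medians of duplicate plates are given as relative viability. That measure is the nuclei count in treated wells divided by the count in vehicle wells. Counts were taken on 4× images of lung cancer cell lines in 1536-well plates, 5 days after pin-tool dosing the day after seeding with one drug alone or a fixed anchor-drug dose plus five library-drug doses (not always all listed) in √10 steps.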

CAL-12T = tested on: CAL-12T
In short: as §1

COR-L 105 = tested on: COR-L 105
In short: as §1

ChaGo-K-1 = tested on: ChaGo-K-1
In short: as §1

EMC-BAC-2 = tested on: EMC-BAC-2
In short: as §1

EPLC-272H = tested on: EPLC-272H
In short: as §1

HCC-15 = tested on: HCC-15
In short: as §1

HCC-78 = tested on: HCC-78
In short: as §1

HOP-62 = tested on: HOP-62
In short: as §1

LXF-289 = tested on: LXF-289
In short: as §1

NCI-H1666 = tested on: NCI-H1666
In short: as §1

NCI-H1755 = details: first compound 0.0002 µM
In short: as §1

CC(=O)O[C@@]12CO[C@@H]1C[C@H](O)[C@@]1(C)C(=O)[C@H](O)C3=C(C)[C@@H](OC(=O)[C@H](O)[C@@H](NC(=O)OC(C)(C)C)c4ccccc4)C[C@@](O)([C@@H](OC(=O)c4ccccc4)[C@H]21)C3(C)C [Docetaxel] + CS(=O)(=O)N1CCN(Cc2cc3nc(-c4cccc5[nH]ncc45)nc(N4CCOCC4)c3s2)CC1 [Pictilisib] (partner 1 µM)
relative viability (ABC-1; first compound 0.0002 µM): 0.772 | relative viability (ABC-1; first compound 0.000632 µM): 0.685 | relative viability (ABC-1; first compound 0.002 µM): 0.442 | relative viability (ABC-1; first compound 0.006325 µM): 0.304 | relative viability (ABC-1; first compound 0.02 µM): 0.253 | relative viability (CAL-12T; first compound 0.0002 µM): 0.53 | relative viability (CAL-12T; first compound 0.000632 µM): 0.271 | relative viability (CAL-12T; first compound 0.002 µM): 0.268 | relative viability (CAL-12T; first compound 0.006325 µM): 0.24 | relative viability (CAL-12T; first compound 0.02 µM): 0.171 | relative viability (COR-L 105; first compound 0.0002 µM): 0.392 | relative viability (COR-L 105; first compound 0.000632 µM): 0.37 | relative viability (COR-L 105; first compound 0.002 µM): 0.278 | relative viability (COR-L 105; first compound 0.006325 µM): 0.228 | relative viability (COR-L 105; first compound 0.02 µM): 0.294 | relative viability (ChaGo-K-1; first compound 0.0002 µM): 0.771 | relative viability (ChaGo-K-1; first compound 0.000632 µM): 0.421 | relative viability (ChaGo-K-1; first compound 0.002 µM): 0.44 | relative viability (ChaGo-K-1; first compound 0.006325 µM): 0.354 | relative viability (ChaGo-K-1; first compound 0.02 µM): 0.201 | relative viability (EMC-BAC-2; first compound 0.0002 µM): 0.555 | relative viability (EMC-BAC-2; first compound 0.000632 µM): 0.469 | relative viability (EMC-BAC-2; first compound 0.002 µM): 0.324 | relative viability (EMC-BAC-2; first compound 0.006325 µM): 0.271 | relative viability (EMC-BAC-2; first compound 0.02 µM): 0.207 | relative viability (EPLC-272H; first compound 0.0002 µM): 0.27 | relative viability (EPLC-272H; first compound 0.000632 µM): 0.198 | relative viability (EPLC-272H; first compound 0.002 µM): 0.161 | relative viability (EPLC-272H; first compound 0.006325 µM): 0.111 | relative viability (EPLC-272H; first compound 0.02 µM): 0.126 | relative viability (HCC-15; first compound 0.0002 µM): 0.679 | relative viability (HCC-15; first compound 0.000632 µM): 0.491 | relative viability (HCC-15; first compound 0.002 µM): 0.226 | relative viability (HCC-78; first compound 0.0002 µM): 0.204 | relative viability (HCC-78; first compound 0.000632 µM): 0.185 | relative viability (HCC-78; first compound 0.002 µM): 0.172 | relative viability (HCC-78; first compound 0.006325 µM): 0.166 | relative viability (HCC-78; first compound 0.02 µM): 0.204 | relative viability (HOP-62; first compound 0.0002 µM): 0.75 | relative viability (HOP-62; first compound 0.000632 µM): 0.395 | relative viability (HOP-62; first compound 0.02 µM): 0.101 | relative viability (LXF-289; first compound 0.0002 µM): 0.815 | relative viability (LXF-289; first compound 0.000632 µM): 0.653 | relative viability (LXF-289; first compound 0.002 µM): 0.212 | relative viability (LXF-289; first compound 0.006325 µM): 0.114 | relative viability (LXF-289; first compound 0.02 µM): 0.0576 | relative viability (NCI-H1666; first compound 0.0002 µM): 0.4 | relative viability (NCI-H1666; first compound 0.000632 µM): 0.431 | relative viability (NCI-H1666; first compound 0.002 µM): 0.273 | relative viability (NCI-H1666; first compound 0.006325 µM): 0.198 | relative viability (NCI-H1666; first compound 0.02 µM): 0.169 | relative viability (NCI-H1755): 0.346

— the supplement of paper PMC10307832
